# Entries after “also recorded” stand apart in the source; their conditions may differ.
# T1: M1 to T302 C-terminal RET31 (Homo sapiens, UniProt Q9BY84, I6V/M5I/N284S)
# T1 construct: made in house
# T1 sequence (Q9BY84 1-302 M5I/I6V/N284S): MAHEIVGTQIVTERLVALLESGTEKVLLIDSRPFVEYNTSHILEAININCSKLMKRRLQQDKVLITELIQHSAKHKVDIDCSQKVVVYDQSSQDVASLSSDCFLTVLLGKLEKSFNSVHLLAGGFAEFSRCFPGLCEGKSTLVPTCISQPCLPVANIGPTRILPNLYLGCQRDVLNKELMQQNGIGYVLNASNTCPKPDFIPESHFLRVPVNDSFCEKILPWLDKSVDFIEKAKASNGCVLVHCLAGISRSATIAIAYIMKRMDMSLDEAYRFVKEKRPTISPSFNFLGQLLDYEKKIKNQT
# T2: full-length RET31 (Homo sapiens, UniProt Q9BY84, C584R/N284S/T302A)
# T2 construct: made in house
# T2 sequence (Q9BY84 with tags, fused parts or gaps N284S/T302A/C584R): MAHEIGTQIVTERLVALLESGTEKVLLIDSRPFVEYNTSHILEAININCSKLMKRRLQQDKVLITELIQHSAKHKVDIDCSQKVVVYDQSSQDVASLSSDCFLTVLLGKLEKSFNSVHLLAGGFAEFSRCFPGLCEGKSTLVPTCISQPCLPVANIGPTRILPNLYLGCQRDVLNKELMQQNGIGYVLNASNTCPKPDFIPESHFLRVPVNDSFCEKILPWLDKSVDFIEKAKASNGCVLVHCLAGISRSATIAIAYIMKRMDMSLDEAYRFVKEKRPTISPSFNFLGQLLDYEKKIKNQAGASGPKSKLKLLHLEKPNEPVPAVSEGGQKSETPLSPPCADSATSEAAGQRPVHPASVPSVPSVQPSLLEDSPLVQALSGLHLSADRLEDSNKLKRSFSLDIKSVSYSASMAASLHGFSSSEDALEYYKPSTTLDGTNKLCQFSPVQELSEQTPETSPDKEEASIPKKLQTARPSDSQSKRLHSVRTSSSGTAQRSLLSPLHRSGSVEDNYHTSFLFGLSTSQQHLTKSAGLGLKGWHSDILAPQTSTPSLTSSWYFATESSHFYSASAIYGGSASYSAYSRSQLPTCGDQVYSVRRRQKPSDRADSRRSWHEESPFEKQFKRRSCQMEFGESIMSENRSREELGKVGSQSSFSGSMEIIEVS
# Experiments:
# human lung fibroblasts = experiment: human lung fibroblast proliferation assay, Alamar Blue; format: cell-based; conditions: 3 days in basal medium, expected (should show)
# Procedure: Human lung fibroblasts are obtained from Clonetics (San Diego, Calif.) and maintained in growth media from Clonetics. Dermal microvascular endothelial cells are obtained from Cell Applications (San Diego, Calif.). For proliferation assays, the human lung fibroblasts and dermal microvascular endothelial cells can be cultured at 5,000 cells/well in a 96-well plate for one day in growth medium. The cells are then incubated for one day in 0.1% BSA basal medium. After replacing the medium with fresh 0.1% BSA medium, the cells are incubated with the test proteins for 3 days. Alamar Blue (Alamar Biosciences, Sacramento, Calif.) is added to each well to a final concentration of 10%. The cells are incubated for 4 hr. Cell viability is measured by reading in a CytoFluor fluorescence reader. For the PGE2 assays, the human lung fibroblasts are cultured at 5,000 cells/well in a 96-well plate for one day. […]
# RET31 = experiment: para-nitrophenylphosphate (pNPP) phosphatase activity assay of purified RET31-GST fusion proteins; format: biochemical, human
# Procedure: The bars represent the average of triplicate determinations, and the standard deviations are as shown. Each protein preparation was assayed in the absence and presence of 2 mM orthovanadate (”-van”). […] The phosphatase assays were performed as described in Example 57 herein.
# In addition to assaying the full-length RET31 polypeptide (SEQ ID NO:109), a C-terminal deletion of RET31 was also assayed corresponding to amino acids M1 to T302 of SEQ ID NO:109).
# [1] = target: T1, M1 to T302 C-terminal RET31; experiment: phosphatase activity assay, hydrolysis of para-nitrophenylphosphate (pNPP); format: biochemical; conditions: 2 mM orthovanadate; pNPP substrate; FIG. 36
# Procedure: (§1) The phosphatase activity for the full-length RET31 and the M1 to T302 C-terminal RET31 GST fusion proteins were measured by assaying the ability of the proteins to hydrolyze para-nitrophenylphosphate, a compound known to be a substrate for phosphatases, as described in Krejsa, C. et al., J. Biol. Chem. Vol. 272, p. 11541-11549, 1997 (which is hereby incorporated in its entirety herein). The proteins are incubated with para-nitrophenylphosphate in a solution containing 10 mM imidazole, pH 7.0, 1 mM EDTA, 2 mM dithiothreitol, and 5 μg/ml BSA for 2 hours with and without sodium orthovanadate (Fisher) prepared in distilled water. The progress of the phosphatase reaction in a 96-well format was monitored by the OD405 nm on a plate reader (Molecular Devices) at 10-minute intervals in the kinetic mode.
# (§2) The RET31-GST full length (FL), M1 to T302 C-terminal RET31-GST (trunc), or GST alone were purified and assayed for cleavage of para-nitrophenylphosphate (pNPP). The bars represent the average of triplicate determinations, and the standard deviations are as shown. Each protein preparation was assayed in the absence and presence of 2 mM of the phosphatase inhibitor orthovanadate. In addition, the full length and truncated protein phosphatase activity was blocked by the phosphatase inhibitor vanadate, as shown.
# full-length RET31 = target: T2, full-length RET31; experiment: as above; format: biochemical; conditions: 2 mM orthovanadate; pNPP substrate; FIG. 36
# Procedure: as §1, §2
molecule,measurement,setting,value
"FGF-2: FGF-2 (basic FGF), comparison growth factor",concentration showing stimulation of growth of fibroblasts,human lung fibroblasts,10 to 2500 ng/mL
[O]=[V]([O-])([O-])[O-] [vanadate],inhibition of RET31 phosphatase activity,"RET31; 2 mM orthovanadate, full-length and M1 to T302 RET31-GST",blocked; also recorded: specifically inhibited
"[Na+].[Na+].[Na+].[O]=[V]([O-])([O-])[O-] [orthovanadate, sodium orthovanadate]",effect of phosphatase inhibitor on phosphatase activity,[1],blocked
same,effect of phosphatase inhibitor on phosphatase activity,full-length RET31,blocked
"M1 to T302 RET31 C-terminal deletion mutant: C-terminal deletion of RET31 corresponding to amino acids M1 to T302 of SEQ ID NO:109, GST fusion (protein, listed as Homo sapiens, GST fusion partner lacks entry) MAHEMIGTQIVTERLVALLESGTEKVLLIDSRPFVEYNTSHILEAININCSKLMKRRLQQDKVLITELIQHSAKHKVDIDCSQKVVVYDQSSQDVASLSSDCFLTVLLGKLEKSFNSVHLLAGGFAEFSRCFPGLCEGKSTLVPTCISQPCLPVANIGPTRILPNLYLGCQRDVLNKELIQQNGIGYVLNASYTCPKPDFIPESHFLRVPVNDSFCEKILPWLDKSVDFIEKAKASNGCVLVHCLAGISRSATIAIAYIMKRMDMSLDEAYRFVKEKRPTISPNFNFLGQLLDYEKKIKNQT",increase in phosphatase activity relative to the full-length RET31 polypeptide,"RET31; pNPP substrate, GST fusion proteins",five fold increase
same,phosphatase activity via cleavage of the NPP substrate,"RET31; purified GST fusion protein, pNPP substrate, compared to purified GST alone",demonstrated phosphatase activity

# Source: patent US7358074B2, “Human phosphatase RET31, and variants thereof” (Bristol-Myers Squibb Company, priority 2000, dated 2008)
